Measurements from patent US12180187B2, “1-phenyl-5-azinylpyrazolyl-3-oxyalkyl acids and their use for controlling unwanted plant growth” (BAYER AKTIENGESELLSCHAFT, priority 2019, dated 2024).

Assays:
AVEFA = assay: Pre-emergence action at 320 g/ha against AVEFA; assay type: in vivo; conditions: visual scoring after about 3 weeks vs untreated controls
How it was run: (§1)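 Sow seeds, cover with soil, spray soil surface (WP/EC, 0.5% additive, 600 l/ha water), hold in greenhouse ~3 wk, then rate % activity visually against untreated controls.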

ECHCG = assay: Pre-emergence action against ECHCG, 1280 g/ha; assay type: in vivo, Echinochloa crus-galli; conditions: visual scoring after about 3 weeks vs untreated controls, 100% = plants have died, 0% = like control plants
How it was run: (§2)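 In greenhouse pots of sandy loam, sown weed seeds were covered with soil and treated pre-emergence with the compound in water (600 L/ha, 0.5% additive). Efficacy was assessed visually as percent of untreated control after about 3 weeks.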

POAAN [1] = assay: Pre-emergence action against POAAN, 1280 g/ha; assay type: in vivo, Poa annua; conditions: visual scoring after about 3 weeks vs untreated controls, 100% = plants have died, 0% = like control plants
How it was run: as §2

POLCO = assay: Pre-emergence action at 320 g/ha against POLCO; assay type: in vivo, Fallopia convolvulus (Polygonum convolvulus); conditions: visual scoring after about 3 weeks vs untreated controls
How it was run: as §1

STEME = assay: Pre-emergence action against STEME, 1280 g/ha; assay type: in vivo, Stellaria media; conditions: scored visually after about 3 weeks vs untreated controls (100% = plants have died)
How it was run: as §2

ALOMY = assay: Pre-emergence action at 320 g/ha against ALOMY; assay type: in vivo, Alopecurus myosuroides; conditions: scored visually after about 3 weeks vs untreated controls (100% = plants have died)
How it was run: as §1

SETVI [2] = assay: Pre-emergence action against SETVI, 1280 g/ha; assay type: in vivo, Setaria viridis; conditions: visual scoring after about 3 weeks vs untreated controls, 100% = plants have died, 0% = like control plants
How it was run: as §2

AMARE [3] = assay: Pre-emergence action at 320 g/ha against AMARE; assay type: in vivo, Amaranthus retroflexus; conditions: visual scoring after about 3 weeks vs untreated controls
How it was run: as §1

MATIN [4] = assay: Pre-emergence action against MATIN, 1280 g/ha; assay type: in vivo, Tripleurospermum inodorum (Matricaria inodora); conditions: scored visually after about 3 weeks vs untreated controls (100% = plants have died)
How it was run: as §2

SETVI [5] = assay: Pre-emergence action at 320 g/ha against SETVI; assay type: in vivo, Setaria viridis; conditions: visual scoring after about 3 weeks vs untreated controls
How it was run: as §1

AMARE [6] = assay: Pre-emergence action against AMARE, 1280 g/ha; assay type: in vivo, Amaranthus retroflexus; conditions: scored visually after about 3 weeks vs untreated controls (100% = plants have died)
How it was run: as §2

MATIN [7] = assay: Pre-emergence action at 320 g/ha against MATIN; assay type: in vivo, Tripleurospermum inodorum (Matricaria inodora); conditions: visual scoring after about 3 weeks vs untreated controls
How it was run: as §1

DIGSA = assay: Pre-emergence action at 320 g/ha against DIGSA; assay type: in vivo, Digitaria sanguinalis; conditions: visual scoring after about 3 weeks vs untreated controls
How it was run: as §1

POAAN [8] = assay: Post-emergence action against POAAN, 1.28 kg/ha; assay type: in vivo, Poa annua; conditions: dosage 1280 g/ha, visual rating about 3 weeks after treatment vs untreated controls
How it was run: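 Percent activity was scored visually ~3 wk post-spray relative to untreated plants. Treatment was post-emergence at the one-leaf stage using WP/EC in water with 0.5% additive (600 L/ha).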

Row | Compound | Pre-emergence action against AVEFA in % (AVEFA) [%] | Pre-emergence action against ECHCG (ECHCG) [%] | Pre-emergence action against POAAN (POAAN [1]) [%] | Pre-emergence action against POLCO in % (POLCO) [%] | Pre-emergence action against STEME (STEME) [%] | Pre-emergence action at 320 g/ha against ALOMY in % (ALOMY) [%] | Pre-emergence action against SETVI (SETVI [2]) [%] | Pre-emergence action against AMARE in % (AMARE [3]) [%] | Pre-emergence action against MATIN (MATIN [4]) [%] | Pre-emergence action against SETVI in % (SETVI [5]) [%] | Pre-emergence action against AMARE (AMARE [6]) [%] | Pre-emergence action against MATIN in % (MATIN [7]) [%] | Pre-emergence action against DIGSA in % (DIGSA) [%] | Post-emergence action against POAAN (POAAN [8]) [%]
1 | O=C(O)COc1nn(-c2ccccc2F)c(-c2cncc(F)c2)c1Br [VII-025] | 80 | 100 | 100 | 100 | 100 | 100 | 100 | 100 | 100 | 100 | 100 | 100 | 100 | 100
2 | COC(=O)COc1nn(-c2ccccc2F)c(-c2ccc(F)nc2)c1C(F)(F)F [VII-031] | 100 | 90 | 100 | 100 | 100 | 100 | 100 | 100 | 100 | 100 | 100 | 100 | 100 | 100
3 | COC(=O)C(C)Oc1nn(-c2ccccc2)c(-c2cccnc2)c1Cl (stereo not drawn) [VII-032] | 80 | 100 | 100 | 90 | 100 | 100 | 100 | 100 | 90 | 90 | 100 | 90 | 90 | 100
4 | COC(=O)COc1nn(-c2ccccc2F)c(-c2cncc(F)c2)c1Br [VII-035] | 90 | 100 | 100 | 90 | 100 | 100 | 100 | 100 | 100 | 100 | 100 | 100 | 100 | 100
5 | O=C(O)COc1nn(-c2ccccc2F)c(-c2ccc(F)nc2)c1I [VII-037] | 90 | 100 | 100 | 100 | 100 | 100 | 100 | 100 | 100 | 100 | 100 | 80 | 100 | 100
6 | COC(=O)COc1nn(-c2ccccc2F)c(-c2ccc(F)nc2)c1F [VII-040] | 100 | 100 | 100 | 90 | 100 | 100 | 100 | 100 | 100 | 100 | 100 | 100 | 100 | 100
7 | COCCOC(=O)COc1nn(-c2ccccc2F)c(-c2ccc(F)nc2)c1Br [VII-052] | 90 | 100 | 100 | 100 | 100 | 100 | 100 | 100 | 100 | 100 | 100 | 90 | 100 | 100
8 | CCOC(=O)C(C)Oc1nn(-c2ccccc2F)c(-c2ccc(F)nc2)c1I (stereo not drawn) [VII-057] | 90 | 100 | 100 | 90 | 100 | 100 | 100 | 100 | 100 | 90 | 100 | 90 | 100 | 100
9 | COC(=O)[C@@H](C)Oc1nn(-c2cc(F)ccc2F)c(-c2ccc(F)nc2)c1Br [VII-062] | 100 | 100 | 100 | 100 | 100 | 100 | 100 | 100 | 100 | 100 | 100 | 100 | 100 | 100
10 | CCOC(=O)C(C)Oc1nn(-c2ccccc2F)c(-c2ccc(F)nc2)c1C(F)(F)F (stereo not drawn) [VII-066] | 90 | 100 | 100 | 90 | 100 | 100 | 100 | 100 | 90 | 80 | 100 | 100 | 100 | 100
11 | COC(=O)COc1nn(-c2cc(F)ccc2F)c(-c2ccc(F)nc2)c1Br [VII-089] | 90 | 100 | 100 | 100 | 90 | 100 | 100 | 100 | 100 | 100 | 100 | 90 | 100 | 100
12 | O=C(COc1nn(-c2ccccc2F)c(-c2ccc(F)nc2)c1Br)OCC1CCOC1 (stereo not drawn) [VII-091] | 90 | 100 | 100 | 100 | 100 | 100 | 100 | 100 | 100 | 100 | 100 | 90 | 100 | 100
